Publication PMC10799935, “Discovery of a peripheral 5HT2A antagonist as a clinical candidate for metabolic dysfunction-associated steatohepatitis” (Nature Communications, 2024)
≈ marks a conversion by molar mass, not a printed value. Where “and” joins values, the source holds several entries; their conditions need not be identical. Equal entries are not always repeated.

Experiments:
physchem = conditions: pH 6.8, aqueous buffer
in vitro = conditions: mouse
HFD-fed C57BL/6J mice = assay: DIO mice: body composition (fat and lean mass); format: in vivo, mouse; parameters: Body Mass RAW Fluid / Body Mass RAW Fat body mass / Body Mass RAW Lean body mass / Fat Body: Mean Diff., Vehicle vs. 11c / Lean Body: Mean Diff., Vehicle vs. 11c: unit not given here; conditions: for Fat Body: Mean Diff., Vehicle vs. 11c / Lean Body: Mean Diff., Vehicle vs. 11c: Dunnett's test; for Body Mass Analysis (%) Fat body mass / Body Mass Analysis (%) Lean body mass / Body Mass RAW Fat body mass / Body Mass RAW Lean body mass / Body Weight (body mass sheet) / Body Mass Analysis (%) Fluid / Body Mass RAW Fluid: DIO mice, individual mice and group Mean; for Body Weight (body mass sheet): in g (unit assumed)
From the text: For in vivo efficacy in DIO models and CDAHFD models, the experimental protocol for this study was approved by the Institutional Animal Care and Use Committee (IACUC) at the Korea Advanced Institute of Science and Technology (No. KA2023-027-v2) or Kyungpook National University (No. KNU-20200134). All relevant ethical guidelines were followed. C57BL/6 J male mice (11 weeks old) were purchased from the Charles River Japan and were housed in a specific pathogen-free barrier facility under a regular light-dark cycle (12-hour light/12-hour dark) at 24°C with 40–60% humidity. Food (standard chow diet, Envigo, 2018S) and water were provided ad libitum. […] Mice were euthanized by the method of cervical dislocation. The measurement of lean and fat mass in live mice was performed by a body composition analyzer (LF50 BCA-analyzer, Bruker). After 6 h of fasting, mice were sacrificed, and tissue samples were obtained.

Question: Which results are given for `Cc1nc2n(c(=O)c1CCN1CCC(=C3c4ccc(Cl)cc4CCc4cccnc43)CC1)CCCC2O` (stereo not shown) [Compound 11c]?
Answer: solubility (physchem): 1300 µg/mL (≈ 2510 µM); IC50 (in vitro): > 100 µM; Fat Body: Mean Diff., Vehicle vs. 11c (HFD-fed C57BL/6J mice; 5mpk): 1.897; Lean Body: Mean Diff., Vehicle vs. 11c (HFD-fed C57BL/6J mice; 5mpk): 3.43; fat mass (HFD-fed C57BL/6J mice; 10 mpk daily oral gavage, 8 weeks, vs vehicle-treated mice): reduced; Fat Body: Mean Diff., Vehicle vs. 11c (HFD-fed C57BL/6J mice; 10mpk): 12.76; Lean Body: Mean Diff., Vehicle vs. 11c (HFD-fed C57BL/6J mice; 10mpk): 4.653; Body Mass Analysis (%) Fat body mass (HFD-fed C57BL/6J mice; 5mpk, 5 mg/kg): 34.69%; Body Mass Analysis (%) Lean body mass (HFD-fed C57BL/6J mice; 5mpk, 5 mg/kg): 52.41%; Body Mass Analysis (%) Fat body mass (HFD-fed C57BL/6J mice; 5mpk, 5 mg/kg, group mean): 34.7%; Body Mass Analysis (%) Lean body mass (HFD-fed C57BL/6J mice; 5mpk, 5 mg/kg, group mean): 52.4%; Body Mass RAW Fat body mass (HFD-fed C57BL/6J mice; 5mpk, 5 mg/kg, group mean): 15.9; Body Mass RAW Lean body mass (HFD-fed C57BL/6J mice; 5mpk, 5 mg/kg, group mean): 23.8; Body Weight (body mass sheet) (HFD-fed C57BL/6J mice; 5mpk, 5 mg/kg): 45.7 and 40.4 and 39.5 and 37 and 43.5 and 51 and 45.4; Body Mass Analysis (%) Fluid (HFD-fed C57BL/6J mice; 5mpk, 5 mg/kg, mean): 6.8%; Body Mass RAW Fluid (HFD-fed C57BL/6J mice; 5mpk, 5 mg/kg, mean): 3.1; Body Mass Analysis (%) Fat body mass (HFD-fed C57BL/6J mice; 5mpk, listed as 11C, 5 mg/kg): 42.9% and 30.1% and 27.5% and 28.0% and 34.3% and 39.1% and 41.1%; Body Mass Analysis (%) Fluid (HFD-fed C57BL/6J mice; 5mpk, listed as 11C, 5 mg/kg): 7.2% and 5.5% and 5.6% and 5.7% and 8.1% and 8.2% and 7.4%; Body Mass Analysis (%) Lean body mass (HFD-fed C57BL/6J mice; 5mpk, listed as 11C, 5 mg/kg): 50.9% and 41.8% and 44.8% and 51.8% and 63.0% and 63.1% and 51.4%; Body Mass RAW Fat body mass (HFD-fed C57BL/6J mice; 5mpk, listed as 11C, 5 mg/kg): 19.5 and 15.6 and 13.7 and 11.6 and 14.0 and 17.9 and 18.8; Body Mass RAW Fluid (HFD-fed C57BL/6J mice; 5mpk, listed as 11C, 5 mg/kg): 3.3 and 2.8 and 2.4 and 3.7 and 3.4; Body Mass RAW Lean body mass (HFD-fed C57BL/6J mice; 5mpk, listed as 11C, 5 mg/kg): 23.2 and 21.7 and 22.3 and 21.5 and 25.8 and 28.9 and 23.5; Body Mass Analysis (%) Fluid (HFD-fed C57BL/6J mice; 10mpk, 10 mg/kg): 7.1% and 5.8% and 4.8% and 8.2% and 9.4%; Body Mass RAW Fat body mass (HFD-fed C57BL/6J mice; 10mpk, 10 mg/kg): 8.4 and 13.9 and 12.4 and 15.4 and 9.5 and 5.7; Body Mass RAW Fluid (HFD-fed C57BL/6J mice; 10mpk, 10 mg/kg): 3.2 and 3.0 and 2.4 and 3.4 and 3.9 and 2.2; Body Mass RAW Lean body mass (HFD-fed C57BL/6J mice; 10mpk, 10 mg/kg): 22.2 and 25.2 and 20.6 and 25.5 and 23.2 and 23.1; Body Mass RAW Lean body mass (HFD-fed C57BL/6J mice; 10mpk, 10 mg/kg, group mean): 23.3; Body Weight (body mass sheet) (HFD-fed C57BL/6J mice; 10mpk, 10 mg/kg): 35.7 and 43.1 and 36.3 and 45.2 and 38.2 and 33.4; Body Weight (body mass sheet) (HFD-fed C57BL/6J mice; 10mpk, 10 mg/kg, mean): 38.7; Body Mass Analysis (%) Fluid (HFD-fed C57BL/6J mice; 10mpk, 10 mg/kg, mean): 6.7%; Body Mass RAW Fat body mass (HFD-fed C57BL/6J mice; 10mpk, 10 mg/kg, mean): 10.9
